This is an account of results in patent publication US20230210853A1 (Halia Therapeutics, Inc., priority 2020, published 2023).

The target in the test is T1, full-length recombinant human NEK7 (Homo sapiens, UniProt Q8TDX7).
T1 construct: full-length recombinant human NEK7; GST (N); purchased SignalChem N09-10G; host or cells: Sf9 insect cells (baculovirus)
As to the kind of experiment: NEK7 enzymatic assay ([33P]-ATP, casein substrate). The class given is biochemical. An outline of the steps:
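GST-tagged enzyme, baculovirus-expressed in Sf9 cells, was mixed with casein in 20 mM Hepes pH 7.5, 10 mM MgCl2, 1 mM EGTA, 0.02% Brij35, 2 mM DTT, 1% DMSO. Compounds (3-fold series, 10 μM–0.5 nM) were preincubated 20 min at RT, then [33P]-ATP was added for 2 h at RT. P81 filter-bound radioactivity was expressed as % of vehicle activity and fitted to IC50.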

The mark [1] stands for this setting: Table 2a, recombinant human NEK7, casein substrate.
Where [2] appears, read: Table 2e, recombinant human NEK7, casein substrate.
Where [3] appears, read: Table 2d, recombinant human NEK7, casein substrate.

A value given as a limit tells only on which side of the number the result lay.

T1 sequence (Q8TDX7 whole entry): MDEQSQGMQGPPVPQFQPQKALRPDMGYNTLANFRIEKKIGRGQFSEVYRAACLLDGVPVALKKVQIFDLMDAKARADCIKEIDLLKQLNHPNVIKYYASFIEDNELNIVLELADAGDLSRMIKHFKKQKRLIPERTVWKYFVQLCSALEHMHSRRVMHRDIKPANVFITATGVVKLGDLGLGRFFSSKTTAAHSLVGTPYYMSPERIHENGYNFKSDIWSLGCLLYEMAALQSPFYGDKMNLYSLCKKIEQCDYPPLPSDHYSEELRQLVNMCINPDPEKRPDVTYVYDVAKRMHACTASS

`CC(C)(C)c1cc(NC(=O)Nc2ccc(-c3nn(C4CCOC4)c4ncnc(N)c34)cc2F)on1` (stereo not drawn) [Ia-24, 1-(4-(4-amino-1-(tetrahydrofuran-3-yl)-1H-pyrazolo[3,4-d]pyrimidin-3-yl)-2-fluorophenyl)-3-(3-(tert-butyl)isoxazol-5-yl)urea]: the half-inhibitory concentration (IC50) (as a rule, the midpoint of a concentration-inhibition curve) under setting [1] is below 150 nM.

Take `CC(C)n1nc(-c2ccc(NC(=O)Nc3cc(C(C)(C)C)no3)c(F)c2)c2c(N)ncnc21` [Ia-11, 1-(4-(4-amino-1-isopropyl-1H-pyrazolo[3,4-d]pyrimidin-3-yl)-2-fluorophenyl)-3-(3-(tert-butyl)isoxazol-5-yl)urea]: under setting [1], the concentration for half-maximal inhibition (IC50) was below 150 nM.

Turning to `CC(C)c1cc(NC(=O)Nc2ccc(-c3nn(C4CC4)c4ncnc(N)c34)cc2F)on1` [Ia-41, 1-(4-(4-amino-1-cyclopropyl-1H-pyrazolo[3,4-d]pyrimidin-3-yl)-2-fluorophenyl)-3-(3-isopropylisoxazo1-5-yl)urea], the IC50 under setting [1] fell in the range of 301 to 500 nM.

Turning to `CC(C)N1CCN(Cc2ccc(NC(=O)Nc3ccc(Oc4ccnc5[nH]cc(Cl)c45)cc3F)cc2C(F)(F)F)CC1` [Ie-10, 1-(4-((3-chloro-1H-pyrrolo[2,3-b]pyridin-4-yl)oxy)-2-fluorophenyl)-3-(4-((4-isopropylpiperazin-1-yl)methyl)-3-(trifluoromethyl)phenyl)urea], under setting [2], the IC50 lay within 301 to 500 nM.

On to `CN1CCN(Cc2ccc(NC(=O)Nc3ccc(Oc4ccnc5[nH]cc(Cl)c45)cc3F)cc2F)CC1` [Ie-5, 1-(4-((3-chloro-1H-pyrrolo[2,3-b]pyridin-4-yl)oxy)-2-fluorophenyl)-3-(3-fluoro-4-((4-methylpiperazin-1-yl)methyl)phenyl)urea], for which the IC50 under setting [2] is above 1500 nM.

Regarding `CC(C)n1nc(-c2ccc3c(c2F)CCN3C(=O)Cc2cccc(C(F)(F)F)c2)c2c(N)ncnc21` [II-1, l-(5-(4-amino-1-isopropyl-1H-pyrazolo[3,4-d]pyrimidin-3-yl)-4-fluoroindolin-1-yl)-2-(3-(trifluoromethyl)phenyl)ethan-1-one], the IC50 (comparative compounds of Structure (II)) was in the range of 301 to 500 nM.

In the case of `CC(C)N1CCN(Cc2ccc(NC(=O)Nc3ccc(-c4cn(C5CC5)c5ncnc(N)c45)cc3F)cc2C(F)(F)F)CC1` [Id-62], the IC50 under setting [3] is below 150 nM.

As to `Cc1nc2c(Oc3ccc(NC(=O)Nc4cc(C(C)(C)C)nn4-c4ccccc4)c(F)c3)ccnc2[nH]1` [Ib-19, 1-(3-(tert-butyl)-1-phenyl-1H-pyrazol-5-yl)-3-(2-fluoro-4-((2-methyl-3H-imidazo[4,5-b]pyridin-7-yl)oxy)phenyl)urea], the IC50 (Table 2b, recombinant human NEK7, casein substrate) is above 1500 nM.

Consider `O=C(Nc1ccc(CN2CCOCC2)c(F)c1)Nc1ccc(Oc2ccnc3[nH]cc(Cl)c23)cc1F` [Ie-2, 1-(4-((3-chloro-1H-pyrrolo[2,3-b]pyridin-4-yl)oxy)-2-fluorophenyl)-3-(3-fluoro-4-(morpholinomethyl)phenyl)urea], for which, under setting [2], the IC50 is above 1500 nM.

Take `COCCN1CCN(Cc2ccc(NC(=O)Nc3ccc(-c4cn(C5CC5)c5ncnc(N)c45)cc3F)cc2C(F)(F)F)CC1` [Id-42, 1-(4-(4-amino-7-cyclopropyl-7H-pyrrolo[2,3-d]pyrimidin-5-yl)-2-fluorophenyl)-3-(4-((4-(2-methoxyethyl)piperazin-1-yl)methyl)-3-(trifluoromethyl)phenyl)urea]: the concentration for half-maximal inhibition (IC50) under setting [3] was below 150 nM.

For `CN(C)C1CCN(Cc2ccc(NC(=O)Nc3ccc(-c4cn(C5CC5)c5ncnc(N)c45)cc3F)cc2C(F)(F)F)C1` (stereo not drawn) [Id-44, 1-(4-(4-amino-7-cyclopropyl-7H-pyrrolo[2,3-d]pyrimidin-5-yl)-2-fluorophenyl)-3-(4-((3-(dimethylamino)pyrrolidin-1-yl)methyl)-3-(trifluoromethyl)phenyl)urea], the IC50 under setting [3] was below 150 nM.

With `CC(C)(C)c1cc(NC(=O)Nc2ccc(-c3nn(C4CC4)c4ccnc(N)c34)cc2)on1` [Ia-31, 1-(4-(4-amino-1-cyclopropyl-1H-pyrazolo[4,3-c]pyridin-3-yl)phenyl)-3-(3-(tert-butyl)isoxazol-5-yl)urea], under setting [1], the IC50 was in the range of 501 to 1500 nM.
